# Laboratory results from patent US8912163B2, “Compositions for the treatment or prophylaxis of viral infections” (Katholieke Universiteit Leuven, priority 2007, dated 2014).
# Where two headings read alike, the source gives them in different places.
# Columns and labels:
# Water-solubility by HPLC = assay type: physicochemical; conditions: deionised water, room temperature; for solubility: thermodynamic from solid
# Experimental: HPLC was carried out on a Waters 484 System using Novapack C18 reverse phase column. Flow rate: 1 mL/min. Detection: UV 254 nm. […] The samples were centrifuged at 14.000 rpm in an Eppendorf micro-centrifuge for 1.5 min at room temperature. An aliquot of the clear supernatant was removed and diluted to a concentration within the range of a five-point standard curve. Water-solubility was calculated from each peak area of the above solution by HPLC compared with the sample dissolved in acetonitrile, the concentration of which is already known.
# VZV TK+ YS = test: VZV plaque reduction in HEL cells, TK+ strain YS; assay type: cell-based, Varicella Zoster virus; conditions: 5 days
# Experimental: (§1) VZV-drug susceptibility assays were performed on confluent HEL cells in 96-well microtiter plates. Monolayers were infected with 20 PFU of cell-associated virus per well. For each assay, virus controls (infected-untreated cells) were included. After a 2-hour incubation period, the virus inoculum was removed and the media replaced by the different dilutions (in duplicate) of the tested molecules. Serial dilutions of test compounds were incubated with the infected monolayers for 5 days. After the 5-day incubation period, the cells were fixed and stained with Giemsa, and the level of virus-induced cytopathic effect was determined by counting the number of plaques for each dilution.
# VZV TK+ OKA = test: VZV plaque reduction in HEL cells, TK+ strain OKA; assay type: cell-based, Varicella Zoster virus
# Experimental: as §1
# VZV TK− 07/1 = test: VZV plaque reduction in HEL cells, TK- strain 07/1; assay type: cell-based, Varicella Zoster virus
# Experimental: as §1
# in vitro = assay type: cell-based; conditions: human
# HEL cells = test: in vitro; assay type: cell-based
# VZV = test: Anti-VZV activity in VZV-infected HEL cell cultures (general statements); assay type: cell-based, Varicella Zoster virus; conditions: HEL cells
# Experimental: The objective of this study was to compare the antiviral activity of Compounds 1, 3, 5, 7 and 9 in HEL cells inoculated with VZV strains. Antiviral activity was assessed as the ability of Compounds 1, 3, 5, 7 and 9 to reduce viral plaque formation after incubation periods of 5 days as compared to untreated control cultures.
# as §1
# [1] = Oral bioavailability in mice: Compound 1 in plasma after single oral gavage; assay type: in vivo; conditions: for Compound 1 in plasma (area under the curve (HPLC)): dose equivalent to 25 mg/kg of Compound 1, relative peak area
# Text: The results of this study are shown in Table 1 below and in FIG. 1 of the accompanying drawings.
# purified CD26 = purified CD26 (Homo sapiens, UniProt P27487); test: Conversion (substrate activity) by purified CD26; assay type: biochemical; conditions: purified CD26 (1.5 mU in PBS), 37° C.
# purified CD26, sequence (P27487 whole entry, species assumed): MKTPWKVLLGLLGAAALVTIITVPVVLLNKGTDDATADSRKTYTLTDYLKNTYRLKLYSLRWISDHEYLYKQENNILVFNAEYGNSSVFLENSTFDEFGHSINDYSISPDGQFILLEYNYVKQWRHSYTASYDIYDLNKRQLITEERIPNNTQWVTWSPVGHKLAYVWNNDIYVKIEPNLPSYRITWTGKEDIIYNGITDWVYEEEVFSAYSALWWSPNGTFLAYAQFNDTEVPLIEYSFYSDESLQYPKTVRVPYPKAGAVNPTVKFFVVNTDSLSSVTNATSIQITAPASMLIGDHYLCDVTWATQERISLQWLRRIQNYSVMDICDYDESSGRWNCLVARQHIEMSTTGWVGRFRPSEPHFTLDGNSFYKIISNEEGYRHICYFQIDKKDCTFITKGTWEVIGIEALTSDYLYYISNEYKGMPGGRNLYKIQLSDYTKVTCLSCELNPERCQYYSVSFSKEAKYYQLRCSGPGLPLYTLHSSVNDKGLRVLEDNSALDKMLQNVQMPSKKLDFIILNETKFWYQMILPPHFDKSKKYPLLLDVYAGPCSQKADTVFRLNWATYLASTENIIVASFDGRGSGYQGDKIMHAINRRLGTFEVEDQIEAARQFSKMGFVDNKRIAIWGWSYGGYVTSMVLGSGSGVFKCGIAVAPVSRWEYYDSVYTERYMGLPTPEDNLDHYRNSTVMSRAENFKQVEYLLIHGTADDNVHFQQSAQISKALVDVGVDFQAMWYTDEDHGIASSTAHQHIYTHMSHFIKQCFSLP
# Experimental: (§2) A variety of test compounds have been evaluated for their substrate activity against purified CD26, human serum (HS), and bovine serum (BS) in Eppendorf tubes. The 400 μL reaction mixture contained 50 μM of test compound in PBS (containing 0.1% DMSO). The reaction was started by the addition of purified CD26 (1.5 mU) or 20% of HS (in PBS) or BS (in PBS) at 37° C. At different time points, 100 μL was withdrawn from the reaction mixture, added to 200 μL methanol, and put on ice for ˜10 min. Then, the mixture was centrifuged at 13,000 rpm for 5 min at 4° C. and 250 μL of supernatant was analyzed by HPLC on a reverse phase RP-8 column, using following gradients: […]
# (§3) Gradient A (Buffer A: 50 mM NaH2PO4+5 mM heptane-sulfonic acid pH 3.2; buffer B: acetonitrile): 2 min 98% A+2% B; 6 min linear gradient to 80% A+20% B; 2 min linear gradient to 75% A+25% B; 2 min linear gradient to 65% A+35% B; 18 min linear gradient to 50% A+50% B; 5 min 50% A+50% B; 5 min linear gradient to 98% A+2% B; 5 min equilibration at 98% A+2% B.
# (§4) Gradient B: 2 min 98% A+2% B; 6 min linear gradient to 80% A+20% B; 2 min linear gradient to 75% A+25% B; 2 min linear gradient to 65% A+35% B; 8 min linear gradient to 50% A+50% B; 10 min 50% A+50% B; 10 min linear gradient to 20% A+80% B; 5 min 20% A+80% B; 15 min linear gradient to 98% A+2% B; 5 min 98% A+2% B.
# [2] = Conversion in bovine serum (10%); assay type: in vitro ADME; conditions: Bovine serum 10% in PBS, 37° C.
# Experimental: as §2, with “The reaction was started by the addition of purified CD26 (1.5 mU) or 20% of HS (in PBS) or BS (in PBS) at 37° C.” left out
# as §3, §4
# [3] = Conversion in human serum (10%); assay type: in vitro ADME; conditions: Human serum 10% in PBS, 37° C.
# Experimental: as §2, with “The reaction was started by the addition of purified CD26 (1.5 mU) or 20% of HS (in PBS) or BS (in PBS) at 37° C.” left out
# as §3, §4
# [4] = overnight, means of three determinations
# [5] = Human alphaherpesvirus 3, HEL, 120 h, Table 3b, plaque formation
# [6] = Human alphaherpesvirus 3, HEL, 120 h, read-out: EC50 VZV TK+ OKA, Table 3b, plaque formation, 5 days
# [7] = Human alphaherpesvirus 3, HEL, 120 h, read-out: EC50 VZV TK− 07/1, Table 3b, plaque formation, 5 days
compound,measurement,setting,value
"CCCCCc1ccc(-c2cc3cn([C@H]4CC(O)[C@@H](CO)O4)c(=O)nc3o2)cc1 (stereo partly drawn) [Compound 1, reference compound]",Solubility in water,Water-solubility by HPLC; [4],22 ± 7 µg/mL
same,solubility,Water-solubility by HPLC; read-out: water-solubility,22 µg/mL
"CCCCCc1ccc(-c2cc3cn([C@H]4CC(OC(=O)C(N)C(C)C)[C@@H](CO)O4)c(=O)nc3o2)cc1 (stereo partly drawn) [Compound 3, 3-[2′-Deoxy-3′-O-valyl-β-D-ribofuranosyl]-6-(p-pentylphenyl)-2,3-dihydrofuro[2,3-d]pyrimidin-2-one, reference compound]",EC50,VZV TK+ YS; [5],4 nM
same,EC50,VZV TK+ OKA; [6],7 nM
same,antiviral activity against VZV/TK− (in words),VZV TK− 07/1,lose antiviral activity
same,EC50,VZV TK− 07/1; [7],> 5000 nM
same,CC50,in vitro,> 5000 nM
same,cytotoxic or cytostatic (in words),HEL cells,Neither of them is cytotoxic or cytostatic
same,MCC,HEL cells; human,20 µM
same,antiviral activity in VZV-infected HEL cell cultures (in words),VZV,active
"CCCCCc1ccc(-c2cc3cn([C@H]4CC(O)[C@@H](COC(=O)C(N)C(C)C)O4)c(=O)nc3o2)cc1 (stereo partly drawn) [Compound 5, reference compound]",EC50,"VZV TK+ YS; Human alphaherpesvirus 3, HEL, 120 h, Table 3, plaque formation",30 nM
same,EC50,"VZV TK+ OKA; Human alphaherpesvirus 3, HEL, 120 h, read-out: EC50 VZV TK+ OKA, Table 3, plaque formation, 5 days",14 nM
same,antiviral activity against VZV/TK− (in words),VZV TK− 07/1,lose antiviral activity
same,EC50,"VZV TK− 07/1; Human alphaherpesvirus 3, HEL, 120 h, read-out: EC50 VZV TK− 07/1, Table 3, plaque formation, 5 days",> 1000 nM
same,CC50,in vitro,> 500 nM
same,cytotoxic or cytostatic (in words),HEL cells,Neither of them is cytotoxic or cytostatic
same,MCC,HEL cells; human,>1 µM
same,solubility,"Water-solubility by HPLC; overnight, means of three determinations, read-out: Solubility in water",211 ± 44 µg/mL
same,antiviral activity in VZV-infected HEL cell cultures (in words),VZV,active
CCCCCc1ccc(-c2cc3cn([C@H]4C[C@H](O)[C@@H](COC(=O)[C@@H](NC(=O)[C@@H]5CCCN5C(=O)[C@@H](N)C(C)C)C(C)C)O4)c(=O)nc3o2)cc1 [Compound 7],Compound 1 in plasma (area under the curve (HPLC)),[1]; 15 min after oral gavage,32
same,Compound 1 in plasma (area under the curve (HPLC)),[1]; 30 min after oral gavage,52
same,Compound 1 in plasma (area under the curve (HPLC)),[1]; 45 min after oral gavage,87
same,Compound 1 in plasma (area under the curve (HPLC)),[1]; 60 min after oral gavage,44
same,Compound 1 in plasma (area under the curve (HPLC)),[1]; 120 min after oral gavage,14
same,Compound 1 in plasma (area under the curve (HPLC)),[1]; 180 min after oral gavage,6.2
same,increase of the oral bioavailability of Compound 1 (as estimated by the AUC values),"[1]; oral gavage, versus dosing Compound 1",approximately 12 fold
same,Formation of hydrolysis products (%): Compound 1,purified CD26; 0 hr,0%
same,Formation of hydrolysis products (%): Compound 5,purified CD26; 0 hr,0%
same,Formation of hydrolysis products (%): Compound 7,purified CD26; 0 hr,100%
same,Formation of hydrolysis products (%): Compound 1,purified CD26; 2 hr,49.4%
same,Formation of hydrolysis products (%): Compound 5,purified CD26; 2 hr,50.6%
same,Formation of hydrolysis products (%): Compound 7,purified CD26; 2 hr,0%
same,Formation of hydrolysis products (%): Compound 1,purified CD26; 6 hr,62.9%
same,Formation of hydrolysis products (%): Compound 5,purified CD26; 6 hr,37.1%
same,Formation of hydrolysis products (%): Compound 7,purified CD26; 6 hr,0%
same,Formation of hydrolysis products (%): Compound 1,purified CD26; 20 hr,75.5%
same,Formation of hydrolysis products (%): Compound 5,purified CD26; 20 hr,24.5%
same,Formation of hydrolysis products (%): Compound 7,purified CD26; 20 hr,0%
same,Formation of hydrolysis products (%): Compound 1,[2]; 0 hr,0%
same,Formation of hydrolysis products (%): Compound 5,[2]; 0 hr,0%
same,Formation of hydrolysis products (%): Compound 7,[2]; 0 hr,100%
same,Formation of hydrolysis products (%): Compound 1,[2]; 1 hr,20.3%
same,Formation of hydrolysis products (%): Compound 5,[2]; 1 hr,19.9%
same,Formation of hydrolysis products (%): Compound 7,[2]; 1 hr,59.8%
same,Formation of hydrolysis products (%): Compound 1,[2]; 4 hr,44.8%
same,Formation of hydrolysis products (%): Compound 5,[2]; 4 hr,34.7%
same,Formation of hydrolysis products (%): Compound 7,[2]; 4 hr,20.4%
same,Formation of hydrolysis products (%): Compound 1,[2]; 20 hr,74.4%
same,Formation of hydrolysis products (%): Compound 5,[2]; 20 hr,21%
same,Formation of hydrolysis products (%): Compound 7,[2]; 20 hr,3.3%
same,Formation of hydrolysis products (%): Compound 1,[3]; 0 hr,0%
same,Formation of hydrolysis products (%): Compound 5,[3]; 0 hr,0%
same,Formation of hydrolysis products (%): Compound 7,[3]; 0 hr,100%
same,Formation of hydrolysis products (%): Compound 1,[3]; 1 hr,57.6%
same,Formation of hydrolysis products (%): Compound 5,[3]; 1 hr,11.4%
same,Formation of hydrolysis products (%): Compound 7,[3]; 1 hr,31%
same,Formation of hydrolysis products (%): Compound 1,[3]; 4 hr,73.4%
same,Formation of hydrolysis products (%): Compound 5,[3]; 4 hr,21.5%
same,Formation of hydrolysis products (%): Compound 7,[3]; 4 hr,5.0%
same,Formation of hydrolysis products (%): Compound 1,[3]; 20 hr,88.5%
same,Formation of hydrolysis products (%): Compound 5,[3]; 20 hr,9.7%
same,Formation of hydrolysis products (%): Compound 7,[3]; 20 hr,1.8%
same,EC50,"VZV TK+ YS; Table 3, plaque formation",10 nM
same,EC50,"VZV TK+ OKA; Table 3, plaque formation, 5 days, read-out: EC50 VZV TK+ OKA",12 nM
same,antiviral activity against VZV/TK− (in words),VZV TK− 07/1,lose antiviral activity
same,EC50,"VZV TK− 07/1; Table 3, plaque formation, 5 days, read-out: EC50 VZV TK− 07/1",> 1000 nM
same,CC50,HEL cells,> 500 nM
same,MCC,HEL cells,>1 µM
same,cytotoxic or cytostatic (in words),HEL cells,Neither of them is cytotoxic or cytostatic
same,water-solubility,Water-solubility by HPLC,1270 µg/mL
same,water-solubility relative to Compound 1,Water-solubility by HPLC,more than 57 fold
same,Solubility in water,Water-solubility by HPLC; [4],1270 ± 50 µg/mL
same,antiviral activity in VZV-infected HEL cell cultures (in words),VZV,found to be active
"CCCCCc1ccc(-c2cc3cn(C4CC(OC(=O)C(NC(=O)C5CCCN5C(=O)C(N)C(C)C)C(C)C)C(CO)O4)c(=O)nc3o2)cc1 [Compound 9, 3-[2′-Deoxy-3′-O-(valyl-prolyl-valyl)-β-D-ribofuranosyl]-6-(p-pentylphenyl)-2,3-dihydrofuro[2,3-d]pyrimidin-2-one]",EC50,VZV TK+ YS; [5],16 nM
same,EC50,VZV TK+ OKA; [6],17 nM
same,antiviral activity against VZV/TK− (in words),VZV TK− 07/1,lose antiviral activity
same,EC50,VZV TK− 07/1; [7],> 5000 nM
same,CC50,in vitro,> 5000 nM
same,cytotoxic or cytostatic (in words),HEL cells,Neither of them is cytotoxic or cytostatic
same,MCC,HEL cells; human,20 µM
same,antiviral activity in VZV-infected HEL cell cultures (in words),VZV,found to be active
